The values below are quoted from earlier work in US20200069728A1, “HYPOCHLOROUS ACID BASED EYE DROP AND OPHTHALMIC COMPOSITION” (priority 2018, published 2020).

The conditions of the data set: non-stabilized hypochlorous acid, background statement.

As to `OCl` [hypochlorous acid], the “potency lost per day” value is given as 1-2%.
